Test results taken from US11498928B2, “Macrocyclic spiroethers as Mcl-1 inhibitors” (ASCENTAGE PHARMA (SUZHOU) CO., LTD., priority 2019, dated 2022).

Columns and labels:
OPM-2 cells = experiment: Cell viability assay (OPM-2 cells), CCK-8; assay type: cell-based; settings: Homo sapiens, OPM-2, 24 h, 5% FBS
In short: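 Viability read by CCK-8 absorbance (450 nm, 4 h reagent incubation) after 24 h compound exposure of 20000 OPM-2 cells per well at 37 °C. IC50 fitted by nonlinear regression on vehicle-normalized signal.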

[1] = target: T1, Mcl-1 protein (residues 171-323) (Homo sapiens, UniProt Q07820); experiment: Inhibition of Mcl-1 by fluorescence polarization (FP) competitive binding assay with FAM-Bid tracer; settings: 2 nM FAM-Bid, 20 nM Mcl-1, 30 min
T1 construct: Tag-free Mcl-1 protein (residues 171-323) was used in the FP assay
T1 sequence (Q07820 171-323): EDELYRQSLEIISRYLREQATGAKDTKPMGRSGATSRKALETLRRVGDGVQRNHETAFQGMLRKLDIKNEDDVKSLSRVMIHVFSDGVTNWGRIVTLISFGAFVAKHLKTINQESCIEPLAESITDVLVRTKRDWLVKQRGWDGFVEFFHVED
In short: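 Ten-point compound titrations compete against 2 nM fluorescein-Bid for 20 nM Mcl-1 (171-323, untagged). Incubation 30 min RT in PBS buffer with BGG and Triton, 5% DMSO final. mP reduction fitted by sigmoidal nonlinear regression for IC50.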

NCI-H929 cells = experiment: Cell viability assay (NCI-H929 cells), CCK-8; assay type: cell-based; settings: Homo sapiens, NCI-H929, 24 h, 5% FBS
In short: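 Viability of NCI-H929 cells was measured using the Cell Counting Kit-8. After 24 hrs of compound exposure, 10 μL of CCK-8 solution per well was incubated for 1-4 hours, and absorbance was read at 450 nm on a BioTek Synergy 1MF. Readings were normalized to vehicle (DMSO) cells, and IC50 values were derived by nonlinear regression in GraphPad Prism 6.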

Row | IC50 [1] | IC50 (NCI-H929 cells) | SMILES | IC50 (OPM-2 cells)
1 | 21 nM | 37 nM | C[C@@H]1[C@@H](C)S(=O)(=O)NC(=O)c2ccc3c(c2)N(C[C@@H]2CC[C@H]2[C@@H](OCCN2CCN(S(C)(=O)=O)CC2)C2=C[C@H]1C2)C[C@@]1(CCCc2c1ccc(Cl)c2F)CO3 [compound 76, (1S,11′R,12′5,13′R,16′R,16a′R,18a′R,E)-6-chloro-5-fluoro-11′,12′-dimethyl-16′-(2-(4-(methylsulfonyl)piperazin-1-yl)ethoxy)-3,4,12′,13′,16′,16a′,17′,18′,18a′,19′-decahydro-1′H,2H,3′H,11′H-spiro[naphthalene-1,2′-[5,7]etheno[13,15]methanocyclobuta[i][1,4]oxazepino[3,4-f][1]thia[2,7]diazacyclohexadecin]-8′(9′H)-one 10′,10′-dioxide] | 206 nM
2 | 8.5 nM | 5.3 nM | C[C@@H]1[C@@H](C)S(=O)(=O)NC(=O)c2ccc3c(c2)N(C[C@@H]2CC[C@H]2[C@@H](OCCN(C)C)C2=C[C@H]1C2)C[C@@]1(CCCc2c1ccc(Cl)c2F)CO3 [compound 77, (1S,11′R,12′S,13′R,16′R,16a′R,18a′R,E)-6-chloro-16′-(2-(dimethylamino)ethoxy)-5-fluoro-11′,12′-dimethyl-3,4,12′,13′,16′,16a′,17′,18′,18a′,19′-decahydro-1′H,2H,3′H,1 PH-spiro[naphthalene-1,2′-[5,7]etheno[13,15]methanocyclobuta[i][1,4]oxazepino[3,4-f][1]thia[2,7]diazacyclohexadecin]-8′(9′H)-one 10′,10′-dioxide] | 68 nM
3 | 16 nM | 66 nM | CNCCO[C@H]1C2=C[C@@H](C2)[C@H](C)[C@@H](C)S(=O)(=O)NC(=O)c2ccc3c(c2)N(C[C@@H]2CC[C@H]21)C[C@@]1(CCCc2c1ccc(Cl)c2F)CO3 [compound 78, (1S,11′R,12′S,13′R,16′R,16a′R,18a′R,E)-6-chloro-5-fluoro-11′,12′-dimethyl-16′-(2-(methylamino)ethoxy)-3,4,12′,13′,16′,16a′,17′,18′,18a′,19′-decahydro-1′H,2H,3′H, 11′H-spiro[naphthalene-1,2′-[5,7]etheno[13,15]methanocyclobuta[i][1,4]oxazepino[3,4-f][1]thia[2,7]diazacyclohexadecin]-8′(9′H)-one 10′,10′-dioxide] | 184 nM
4 | 15 nM | 58 nM | C[C@@H]1[C@@H](C)S(=O)(=O)NC(=O)c2ccc3c(c2)N(C[C@@H]2CC[C@H]2[C@@H](OCCN(C)S(C)(=O)=O)C2=C[C@H]1C2)C[C@@]1(CCCc2c1ccc(Cl)c2F)CO3 [compound 79, N-(2-(((1S,11′R,12′S,13′R,16′R,16a′R,18a′R,E)-6-chloro-5-fluoro-11′,12′-dimethyl-10′,10′-dioxido-8′-oxo-3,4,8′,9′,12′,13′,16′,16a′,17′,18′,18a′,19′-dodecahydro-1′H,2H,3′H, 11′H-spiro[naphthalene-1,2′-[5,7]etheno[13,15]methanocyclobuta[i][1,4]oxazepino[3,4-f][1]thia[2,7]diazacyclohexadecin]-16′-yl)oxy)ethyl)-N-methylmethanesulfonamide] | 53 nM
5 | 13 nM | 62 nM | CC(=O)N(C)CCO[C@H]1C2=C[C@@H](C2)[C@H](C)[C@@H](C)S(=O)(=O)NC(=O)c2ccc3c(c2)N(C[C@@H]2CC[C@H]21)C[C@@]1(CCCc2c1ccc(Cl)c2F)CO3 [compound 80, N-(2-(((1S,11′R,12′S,13′R,16′R,16a′R,18a′R,E)-6-chloro-5-fluoro-11′,12′-dimethyl-10′,10′-dioxido-8′-oxo-3,4,8′,9′,12′,13′,16′,16a′,17′,18′,18a′,19′-dodecahydro-1′H,2H,3′H, 11′H-spiro[naphthalene-1,2′-[5,7]etheno[13,15]methanocyclobuta[i][1,4]oxazepino[3,4-f][1]thia[2,7]diazacyclohexadecin]-16′-yl)oxy)ethyl)-N-methylacetamide] | 158 nM
6 | 17 nM | 360 nM | C[C@@H]1[C@@H](C)S(=O)(=O)NC(=O)c2ccc3c(c2)N(C[C@@H]2CC[C@H]2[C@@H](OCCN2CC4(CN(C)C4)C2)C2=C[C@H]1C2)C[C@@]1(CCCc2c1ccc(Cl)c2F)CO3 [compound 81, (1S,11′R,12′S,13′R,16′R,16a′R,18a′R,E)-6-chloro-5-fluoro-11′,12′-dimethyl-16′-(2-(6-methyl-2,6-diazaspiro[3.3]heptan-2-yl)ethoxy)-3,4,12′,13′,16′,16a′,17′,18′,18a′,19′-decahydro-1′H,2H,3′H, 11′H-spiro[naphthalene-1,2′-[5,7]etheno[13,15]methanocyclobuta[i][1,4]oxazepino[3,4-f][1]thia[2,7]diazacyclohexadecin]-8′(9′H)-one 10′,10′-dioxide] | 667 nM
7 | 31 nM | 56 nM | C[C@@H]1[C@@H](C)S(=O)(=O)NC(=O)c2ccc3c(c2)N(C[C@@H]2CC[C@H]2[C@@H](OCCN2C[C@@H](C)O[C@@H](C)C2)C2=C[C@H]1C2)C[C@@]1(CCCc2c1ccc(Cl)c2F)CO3 [compound 82, (1S,11′R,12′S,13′R,16′R,16a′R,18a′R,E)-6-chloro-16′-(2-((2S,6R)-2,6-dimethylmorpholino)ethoxy)-5-fluoro-11′,12′-dimethyl-3,4,12′,13′,16′,16a′,17′,18′,18a′,19′-decahydro-1′H,2H,3′H,11′H-spiro[naphthalene-1,2′-[5,7]etheno[13,15]methanocyclobuta[i][1,4]oxazepino[3,4-f][1]thia[2,7]diazacyclohexadecin]-8′(9′H)-one 10′,10′-dioxide] | 54 nM
8 | 25 nM | 220 nM | C[C@@H]1[C@@H](C)S(=O)(=O)NC(=O)c2ccc3c(c2)N(C[C@@H]2CC[C@H]2[C@@H](OCCN2C[C@@H](C)N[C@@H](C)C2)C2=C[C@H]1C2)C[C@@]1(CCCc2c1ccc(Cl)c2F)CO3 [compound 83, (1S,11′R,12′S,13′R,16′R,16a′R,18a′R,E)-6-chloro-16′-(2-((3 S,5R)-3,5-dimethylpiperazin-1-yl)ethoxy)-5-fluoro-11′,12′-dimethyl-3,4,12,′13′,16′,16a′,17′,18′,18a′,19′-decahydro-1′H,2H,3′H,11′H-spiro[naphthalene-1,2′-[5,7]etheno[13,15]methanocyclobuta[i][1,4]oxazepino[3,4-f][1]thia[2,7]diazacyclohexadecin]-8′(9′H)-one 10′,10′-dioxide] | 164 nM
9 | 20 nM | 76 nM | C[C@@H]1[C@@H](C)S(=O)(=O)NC(=O)c2ccc3c(c2)N(C[C@@H]2CC[C@H]2[C@@H](OCCN2C[C@@H](C)N(C)[C@@H](C)C2)C2=C[C@H]1C2)C[C@@]1(CCCc2c1ccc(Cl)c2F)CO3 [compound 84, (1S,11′R,12′S,13′R,16′R,16a′R,18a′R,E)-6-chloro-5-fluoro-11′,12′-dimethyl-16′-(2-((3 S,5R)-3,4,5-trimethylpiperazin-1-yl)ethoxy)-3,4,12′,13′,16′,16a′,17′,18′,18a′,19′-decahydro-1′H,2H,3′H, 11′H-spiro[naphthalene-1,2′-[5,7]etheno[13,15]methanocyclobuta[i][1,4]oxazepino[3,4-f][1]thia[2,7]diazacyclohexadecin]-8′(9′H)-one 10′,10′-dioxide] | 65 nM
10 | 20 nM | 73 nM | C[C@@H]1[C@@H](C)S(=O)(=O)NC(=O)c2ccc3c(c2)N(C[C@@H]2CC[C@H]2[C@@H](OCCN2CCNC(=O)C2)C2=C[C@H]1C2)C[C@@]1(CCCc2c1ccc(Cl)c2F)CO3 [compound 85, (1S,11′R,12′S,13′R,16′R,16a′R,18a′R,E)-6-chloro-5-fluoro-11′,12′-dimethyl-16′-(2-(3-oxopiperazin-1-yl)ethoxy)-3,4,12′,13′,16′,16a′,17′,18′,18a′,19′-decahydro-1′H,2H,3′H, 11′H-spiro[naphthalene-1,2′-[5,7]etheno[13,15]methanocyclobuta[i][1,4]oxazepino[3,4-f][1]thia[2,7]diazacyclohexadecin]-8′(9′H)-one 10′,10′-dioxide] | 124 nM
11 | 10 nM | 3.8 nM | C[C@@H]1[C@@H](C)S(=O)(=O)NC(=O)c2ccc3c(c2)N(C[C@@H]2CC[C@H]2[C@@H](OCCN2CCN(C)CC2)C2=C[C@H]1C2)C[C@@]1(CCCc2c1ccc(Cl)c2F)CO3 [compound 86, (1S,11′R,12′S,13′R,16′R,16a′R,18a′R,E)-6-chloro-5-fluoro-11′,12′-dimethyl-16′-(2-(4-methylpiperazin-1-yl)ethoxy)-3,4,12′,13′,16′,16a′,17′,18′,18a′,19′-decahydro-1′H,2H,3′H, 11′H-spiro[naphthalene-1,2′-[5,7]etheno[13,15]methanocyclobuta[i][1,4]oxazepino[3,4-f][1]thia[2,7]diazacyclohexadecin]-8′(9′H)-one 10′,10′-dioxide] | 64 nM
12 | 8.5 nM | 27 nM | CC(=O)N1CCN(CCO[C@H]2C3=C[C@@H](C3)[C@H](C)[C@@H](C)S(=O)(=O)NC(=O)c3ccc4c(c3)N(C[C@@H]3CC[C@H]32)C[C@@]2(CCCc3c2ccc(Cl)c3F)CO4)CC1 [compound 87, (1S,11′R,12′S,13′R,16′R,16a′R,18a′R,E)-16′-(2-(4-acetylpiperazin-1-yl)ethoxy)-6-chloro-5-fluoro-11′,12′-dimethyl-3,4,12′,13′,16′,16a′,17′,18′,18a′,19′-decahydro-1′H,2H,3′H, 11′H-spiro[naphthalene-1,2′-[5,7]etheno[13,15]methanocyclobuta[i][1,4]oxazepino[3,4-f][1]thia[2,7]diazacyclohexadecin]-8′(9′H)-one 10′,10′-dioxide] | 369 nM
